Test results: patent US10815238B2, “Antimicrobial compounds and methods of making and using the same” (BIOVERSYS AG, priority 2013, dated 2020)

Tested on: Eschericia coli (E. coli) strain ATCC25922
Experiment: Standard microdilution assay, MIC against E. coli ATCC25922
Assay type: cell-based
Details: Escherichia coli; E. coli strain ATCC25922, standard microdilution assay; cutoff 16 micrograms/mL; read-out: MIC E. Coli
Outline: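 MIC determined by broth microdilution following CLSI protocols, with reference strains run in parallel for quality control. Activity scored +/− at a cutoff of 16 micrograms/mL.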

Row | MIC | Compound
1 | < 16 µg/mL | C[C@H](N)CCCc1cc(Cl)c(F)c(-c2cc3cn(-c4ccc([C@@H](C)NCCCNC(=N)N)cc4)c(=O)nc3[nH]2)c1 [Compound 317]
2 | < 16 µg/mL | C[C@H](N)CCCc1cc(Cl)c(F)c(-c2cc3cn(-c4ccc([C@@H](CO)NCCCNC(=N)N)cc4)c(=O)nc3[nH]2)c1 [Compound 44]
3 | < 16 µg/mL | C[C@H](N)CCCc1cc(-c2cc3cn(-c4ccc([C@H](C)NCCCNC(=N)N)cc4)c(=O)nc3[nH]2)c(F)c(C(F)(F)F)c1F [Compound 214]
4 | < 16 µg/mL | C[C@H](N)CCCc1cc(OC(F)(F)F)c(F)c(-c2cc3cn(-c4ccc([C@H](C)NCC[C@H](CN)NC(=N)N)cc4)c(=O)nc3[nH]2)c1 [Compound 305]
5 | > 16 µg/mL | COc1ccc(CNCc2ccc(-n3cc4cc[nH]c4nc3=O)cc2)cn1 [Compound 144]
6 | > 16 µg/mL | C[C@H](N)CCCc1cc(SC(F)(F)F)cc(-c2cc3cn(-c4ccc(CNCc5c[nH]nn5)cc4)c(=O)nc3[nH]2)c1 [Compound 121]
7 | < 16 µg/mL | N=C(N)NCCCN[C@@H](CCF)c1ccc(-n2cc3cc(-c4cc(CCC[C@@H](N)CF)cc(Cl)c4F)[nH]c3nc2=O)cc1 [Compound 168]
8 | < 16 µg/mL | CCOC(=O)N[C@@H](C)CCCc1cc(-c2cn3cc(-c4ccc([C@H](C)NCCCNC(=N)N)cc4)c(=O)nc3[nH]2)cc(C(F)(F)F)c1 [Compound 299]
9 | < 16 µg/mL | C[C@H](N)CCCc1cc(OC(F)(F)F)c(F)c(-c2cc3cn(-c4ccc(CN[C@H](CO)CCNC(=N)N)cc4)c(=O)nc3[nH]2)c1 [Compound 250]
10 | < 16 µg/mL | C[C@H](N)CCCc1cc(Cl)c(F)c(-c2cc3cn(-c4ccc([C@@H](CF)NCCCNC(=N)N)cc4)c(=O)nc3[nH]2)c1 [Compound 95]
11 | < 16 µg/mL | C[C@H](N)CCCc1cc(OC(F)(F)F)c(F)c(-c2cc3cn(-c4ccc(CNCC[C@H](CN)NC(=N)N)cc4)c(=O)nc3[nH]2)c1 [Compound 311]
12 | < 16 µg/mL | C[C@H](N)CCCc1cc(OC(F)(F)F)c(F)c(-c2cc3cn(-c4ccc([C@H](C)NCC[C@@H](CNCc5nccs5)NC(=N)N)cc4)c(=O)nc3[nH]2)c1 [Compound 277]
13 | > 16 µg/mL | O=c1nc2[nH]ccc2cn1-c1ccc(CNCc2c[nH]nn2)cc1 [Compound 129]
14 | < 16 µg/mL | C[C@H](NCCCNC(=N)N)c1ccc(-n2cc3cc(-c4cc([C@H](O)CC[C@@H](C)N)cc(C(F)(F)F)c4)[nH]c3nc2=O)cc1 [Compound 20]
15 | > 16 µg/mL | C[C@H](N)CCCc1cc(SC(F)(F)F)cc(-c2cc3cn(-c4ccc(CNCc5cnc(N)s5)cc4)c(=O)nc3[nH]2)c1 [Compound 159]
16 | > 16 µg/mL | CNCCNCc1ccc(-n2cc(-c3cc4cn(-c5ccc(CNCCNC)cc5)c(=O)nc4[nH]3)c(N)nc2=O)cc1 [Compound 125]
17 | < 16 µg/mL | C[C@H](N)CCCc1cc(Cl)c(F)c(-c2cc3cn(-c4ccc([C@H](N)C(=O)NCCNC(=N)N)cc4)c(=O)nc3[nH]2)c1 [Compound 253]
18 | < 16 µg/mL | N=C(N)N1CCN(Cc2ccc(-n3cc4cc(-c5ccc(C(NC6CN(C(=N)N)C6)C(F)(F)F)cc5)[nH]c4nc3=O)cc2)CC1 (stereo not shown) [Compound 54]
19 | > 16 µg/mL | COc1ccc(CNCc2ccc(-n3cc4cc(-c5cc(CCC[C@H](C)N)cc(Cl)c5F)[nH]c4nc3=O)cc2)cn1 [Compound 145]
20 | > 16 µg/mL | C[C@H](N)CCCc1cc(Cl)c(F)c(-c2cc3cn(-c4ccc(CNCc5nn[nH]n5)cc4)c(=O)nc3[nH]2)c1 [Compound 162]

Row | MIC | Compound
21 | < 16 µg/mL | CCc1c(F)c(CCC[C@H](C)N)cc(-c2cc3cn(-c4ccc([C@H](C)NCCCNC(=N)N)cc4)c(=O)nc3[nH]2)c1F [Compound 218]
22 | < 16 µg/mL | C[C@H](N)CCCc1cc(-c2cc3cn(-c4ccc([C@H](N)CCCCNC(=N)N)cc4)c(=O)nc3[nH]2)cc(C(F)(F)F)c1 [Compound 235]
23 | < 16 µg/mL | C[C@H](N)CCCc1cc(OC(F)(F)F)c(F)c(-c2cc3cn(-c4ccc([C@H](C)NCC[C@@H](CCCN)NC(=N)N)cc4)c(=O)nc3[nH]2)c1 [Compound 283]
24 | < 16 µg/mL | CC[C@H](N)CCNCc1ccc(-n2cc3cc(-c4cc(CCC[C@H](C)N)cc(Cl)c4F)[nH]c3nc2=O)cc1 [Compound 152]
25 | < 16 µg/mL | C[C@H](N)CCCc1cc(-c2cc3cn(-c4ccc([C@H](CCO)NCCCNC(=N)N)cc4)c(=O)nc3[nH]2)cc(C(F)(F)F)c1 [Compound 16]
26 | < 16 µg/mL | C=CCN(CCCN[C@@H](C)c1ccc(-n2cc3cc(-c4cc(CCC[C@H](C)N)cc(C(F)(F)F)c4)[nH]c3nc2=O)cc1)C(=N)N [Compound 215]
27 | < 16 µg/mL | C[C@H](N)CCCc1cc(Cl)c(F)c(-c2cc3cn(-c4ccc([C@H](C)NCC[C@H](Cc5c[nH]nn5)NC(=N)N)cc4)c(=O)nc3[nH]2)c1 [Compound 267]
28 | < 16 µg/mL | C[C@H](NCCCNC(=N)N)c1ccc(-n2cc3cc(-c4cc(CO[C@H](CN)CO)cc(SC(F)(F)F)c4)[nH]c3nc2=O)cc1 [Compound 55]
29 | > 16 µg/mL | CC(=O)N[C@@H](C)CCCc1cc(Cl)c(F)c(-c2cc3cn(-c4ccc([C@H](C)NCCCNC(=N)N)cc4)c(=O)nc3[nH]2)c1 [Compound 76]
30 | < 16 µg/mL | CC(N)CCNCc1ccc(-n2cc3cc(-c4cc(CCC[C@H](C)N)cc(Cl)c4F)[nH]c3nc2=O)cc1 (stereo partly shown) [Compound 160]
31 | < 16 µg/mL | C[C@H](N)CCCc1cc(Cl)c(F)c(-c2cc3cn(-c4ccc([C@@H](NCCCNC(=N)N)C(=O)N5CCNCC5)cc4)c(=O)nc3[nH]2)c1 [Compound 12]
32 | < 16 µg/mL | C=CC[C@H](NCCCNC(=N)N)c1ccc(-n2cc3cc(-c4cc(CCC[C@H](C)N)cc(SC(F)(F)F)c4)[nH]c3nc2=O)cc1 [Compound 11]
33 | > 16 µg/mL | COc1ccc(Cn2cc(CNCc3ccc(-n4cc5cc(-c6cc(CCC[C@H](C)N)cc(Cl)c6F)[nH]c5nc4=O)cc3)nn2)cc1 [Compound 120]
34 | < 16 µg/mL | C[C@H](N)CCCc1cc(Cl)c(F)c(-c2cc3cn(-c4cccc(CNCCCNC(=N)N)c4)c(=O)nc3[nH]2)c1 [Compound 90]
35 | < 16 µg/mL | C[C@H](N)CCCc1cc(OC(F)(F)F)c(F)c(-c2cc3cn(-c4ccc([C@H](C)NCC[C@H](CCCO)NC(=N)N)cc4)c(=O)nc3[nH]2)c1 [Compound 276]
36 | < 16 µg/mL | C[C@H](N)CCCc1cc(Cl)c(F)c(-c2cc3cn(-c4ccc(CNCC[C@@H]5CN=C(N)N5)cc4)c(=O)nc3[nH]2)c1 [Compound 204]
37 | < 16 µg/mL | CC(CCNCc1ccc(-n2cc3cc(-c4cc(CCC[C@H](C)N)cc(Cl)c4F)[nH]c3nc2=O)cc1)NC(=N)N (stereo partly shown) [Compound 186]
38 | < 16 µg/mL | C[C@H](N)CCCc1cc(Cl)c(F)c(-c2cc3cn(-c4ccc([C@H](C)NCC[C@H](CCO)NC(=N)N)cc4)c(=O)nc3[nH]2)c1 [Compound 244]
39 | < 16 µg/mL | C[C@H](N)CCCc1cc(Cl)c(F)c(-c2cc3cn(-c4ccc([C@H](C)NCC[C@H](Cn5cc(CN)nn5)NC(=N)N)cc4)c(=O)nc3[nH]2)c1 [Compound 301]
40 | < 16 µg/mL | C=CC[C@@H](CCNCc1ccc(-n2cc3cc(-c4cc(CCC[C@H](C)N)cc(Cl)c4F)[nH]c3nc2=O)cc1)NC(=N)N [Compound 202]

Row | MIC | Compound
41 | < 16 µg/mL | C[C@H](N)CCCc1cc(OC(F)(F)F)c(F)c(-c2cc3cn(-c4ccc([C@H](C)NCC[C@H](Cn5ccnn5)NC(=N)N)cc4)c(=O)nc3[nH]2)c1 [Compound 294]
42 | > 16 µg/mL | C[C@H](N)CCCc1cc(Cl)c(F)c(-c2cc3cn(-c4ccc(CNCCC(=O)O)cc4)c(=O)nc3[nH]2)c1 [Compound 139]
43 | < 16 µg/mL | C[C@H](N)CCCc1cc(Cl)c(F)c(-c2cc3cn(-c4ccc(CNCC[C@H](N)CO)cc4)c(=O)nc3[nH]2)c1 [Compound 192]
44 | < 16 µg/mL | C[C@H](N)CCCc1cc(Cl)c(F)c(-c2cc3cn(-c4ccc(CN[C@H](CO)CCNC(=N)N)cc4)c(=O)nc3[nH]2)c1 [Compound 249]
45 | < 16 µg/mL | C=C[C@H](CCNCc1ccc(-n2cc3cc(-c4cc(CCC[C@H](C)N)cc(OC(F)(F)F)c4F)[nH]c3nc2=O)cc1)NC(=N)N [Compound 238]
46 | < 16 µg/mL | C[C@H](NCCCNC(=N)N)c1ccc(-n2cc3cc(-c4cc(C[C@H]5C[C@H](N)CCO5)cc(OC(F)(F)F)c4)[nH]c3nc2=O)cc1 [Compound 38]
47 | < 16 µg/mL | C[C@H](N)CCCc1cc(SC(F)(F)F)cc(-c2cc3cn(-c4ccc([C@@H](NCCCNC(=N)N)c5cccnc5)cc4)c(=O)nc3[nH]2)c1 [Compound 66]
48 | < 16 µg/mL | C[C@H](N)CCCc1cc(Cl)c(F)c(-c2cc3cn(-c4ccc([C@H](CF)NCCCNC(=N)N)cc4)c(=O)nc3[nH]2)c1 [Compound 150]
49 | < 16 µg/mL | C[C@H](N)CCCc1cc(-c2cc3cn(-c4ccc([C@@H](NCCCNC(=N)N)C(N)=O)cc4)c(=O)nc3[nH]2)cc(C(F)(F)F)c1 [Compound 59]
50 | < 16 µg/mL | COc1ccc([C@H](NCCCNC(=N)N)c2ccc(-n3cc4cc(-c5cc(CCC[C@H](C)N)cc(Cl)c5F)[nH]c4nc3=O)cc2)cc1 [Compound 5]
51 | < 16 µg/mL | C[C@H](N)CCCc1cc(Cl)c(F)c(-c2cc3cn(-c4ccc(CNCCC(C)(C)N)cc4)c(=O)nc3[nH]2)c1 [Compound 175]
52 | < 16 µg/mL | CC(=O)OC[C@H](N)CCCc1cc(Cl)c(F)c(-c2cc3cn(-c4ccc([C@H](C)NCCCNC(=N)N)cc4)c(=O)nc3[nH]2)c1 [Compound 295]
53 | < 16 µg/mL | C=CC[C@H](CCN[C@@H](C)c1ccc(-n2cc3cc(-c4cc(CCC[C@H](C)N)cc(OC(F)(F)F)c4F)[nH]c3nc2=O)cc1)NC(=N)N [Compound 260]
54 | < 16 µg/mL | C[C@H](N)CCCc1cc(Cl)c(F)c(-c2cc3cn(-c4ccc([C@H](C)NCC[C@@H](C)NC(=N)N)cc4)c(=O)nc3[nH]2)c1 [Compound 194]
55 | < 16 µg/mL | C[C@H](N)CCCc1cc(Cl)c(F)c(-c2[nH]c3nc(=O)n(-c4ccc([C@H](C)NCCCNC(=N)N)cc4)cc3c2Br)c1 [Compound 286]
56 | < 16 µg/mL | C[C@H](NCCCNC(=N)N)c1ccc(-n2cc3cc(-c4cc(CCC[C@@H](N)COC(=O)Nc5ccccc5)cc(Cl)c4F)[nH]c3nc2=O)cc1 [Compound 307]
57 | < 16 µg/mL | C[C@H](N)CCCc1cc(-c2cc3cn(-c4ccc([C@H](Cc5c[nH]nn5)NCCCNC(=N)N)cc4)c(=O)nc3[nH]2)cc(C(F)(F)F)c1 [Compound 47]
58 | < 16 µg/mL | C[C@H](N)CCCc1cc(Cl)c(F)c(-c2cc3cn(-c4ccc([C@H](C)NCC[C@H](CCN)NC(=N)N)cc4)c(=O)nc3[nH]2)c1 [Compound 312]
